Data from patent US6596534B1, “Utilization of osteocalcin promoter to deliver therapeutic genes to tumors” (priority 1997, dated 2003).
Entries after “also recorded” stand apart in the source; their conditions may differ.

Experiments:
[1] = test system: ROS 17/2.8 osteosarcoma lung metastases; test: Treatment of osteosarcoma pulmonary metastasis by intravenous Ad-OC-TK; format: in vivo, nude mice
Description: Athymic Balb/c (nu/nu) mice at 5 to 6 weeks were purchased from Harlan Co. (Houston, Tex.). […] All mice were maintained in facilities approved by the American Association of Accreditation of Laboratory Animal Care, and all animal studies were conducted in accordance with the principles and procedures outlined in the NIH Guide for the Care and Use of Laboratory Animals.
The osteosarcoma pulmonary metastasis model was established as described above. Ad-OC-TK (5×10^8 PFU per 50 μl) was injected via tail vein twice, at day 7 and 14, after ROS 17/2.8 injection. Daily acyclovir intra peritoneal administration (40 mg/kg body weight) started at day 6 after ROS 17/2.8 tumor cell inoculation and continued for 15 days. All animals were sacrificed and examined on day 25. The lungs were removed, photographed, and weighed, and the metastatic deposits were observed under a low-powered (20×) stereo microscope. Histomorphologic observations were made in all specimens according to a standard procedure. Student's t-test was employed to analyze the statistical significance of differences among control and treatment groups.
We next tested the therapeutic efficacy of intravenous Ad-OC-TK gene therapy for the treatment of osteosarcoma lung metastases. Twenty mice bearing ROS 17/2.8 tumor lung metastases were treated with either PBS (control), Ad-OC-TK alone, ACV alone, or Ad-OC-TK plus ACV. Animals were sacrificed and analyzed on day 25 after ROS 17/2.8 inoculation. Tumor nodules on the lung surface were counted with stereo-optic magnification and the lung wet weights were measured, and all the lung specimens were subjected to histological analysis.

[2] = test system: ROS 17/2.8 osteosarcoma lung metastases; test: Long term survival study of mice bearing osteosarcoma lung metastases; format: in vivo, nude mice; details: generalized Wilcoxon test, 0.005<p<0.01 for combination
Description: The end-points of the long term survival study are: animal death or sacrifice upon request by animal care takers because of excessive tumor burden causing animal distress, lethargy, ruffled fur or weight loss. The survival rate of the animals was analyzed by the Kaplan-Meier survival curve. The statistical significance of this study was analyzed with the generalized Wilcoxon test.^18
Twenty-six mice were inoculated with ROS 17/2.8 tumor cells as described above. Animals received either PBS, Ad-OC-TK alone, ACV alone, or Ad-OC-TK plus ACV and survivals were compared. […] Mean survival time was 27.1±2.9 days for the control animals and 36.6±5.8 days for the Ad-OC-TK plus ACV-treated animals (FIG. 6).
FIG. 6. Survival of animals receiving Ad-OC-TK/ACV treatment. Animals bearing osteosarcoma lung metastases were treated with PBS (6 animals), ACV (6 animals), Ad-OC-TK (6 animals), or Ad-OC-TK/ACV (8 animals) as described above. The survival study end-points were animal death or sacrifice per request by animal care personnel for distress, as evidenced by lethargy, ruffled fur or weight loss.

Nc1nc2c(ncn2COCCO)c(=O)[nH]1 [ACV, acyclovir]
size of pulmonary metastases (histology) ([1]; day 25, compared with PBS-treated specimens): No statistical difference; also recorded: massive pulmonary metastatic tumor nodules | number of metastatic tumor nodules on the lung surface ([1]; day 25 after ROS 17/2.8 inoculation, Ad-OC-TK 5×10^8 PFU tail vein day 7 and 14, ACV 40 mg/kg i.p. daily for 15 days, p<0.0001 for combination vs PBS): No statistical difference; also recorded: no significant differences | lung wet weight ([1]; day 25 after ROS 17/2.8 inoculation, same regimen, p=0.0005 for combination vs PBS): no significant differences | survival compared with controls [2]: No obvious difference in survival
